The record followed here is patent US10144706B2 (BRISTOL-MYERS SQUIBB COMPANY, priority 2016, dated 2018).

Each structure is given as a SMILES string.

For the assay, the target named is T1, PD-1/PD-L1 interaction (PD-1-Ig / PD-L1-His) (Homo sapiens, UniProt Q9NZQ7).
T1 construct: hPDL1(18-239)-TVMV-His; TVMV protease site linker (C); made in house; host or cells: HEK293T
T1 sequence (Q9NZQ7 with tags, fused parts or gaps): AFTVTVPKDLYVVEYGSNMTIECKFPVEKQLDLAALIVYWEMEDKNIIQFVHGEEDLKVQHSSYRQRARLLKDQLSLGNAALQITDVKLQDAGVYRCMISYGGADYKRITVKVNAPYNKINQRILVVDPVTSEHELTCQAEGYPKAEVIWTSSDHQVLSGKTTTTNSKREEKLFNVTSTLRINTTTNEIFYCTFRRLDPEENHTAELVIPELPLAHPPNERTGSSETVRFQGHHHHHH
Briefly: PD-1/PD-L1 Homogenous Time-Resolved Fluorescence (HTRF) binding assay. As to conditions: IC50 range class; PD-L1-His 10 nM, PD-1-Ig 20 nM; read-out: Range or IC50. The method in brief: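 Human PD-L1-His (10 nM final) was pre-incubated with inhibitor for 15 min, then PD-1-Ig (20 nM final) was added for a further 15 min in dPBS with 0.1% BSA and 0.05% Tween-20. Binding was detected by HTRF using Eu-cryptate anti-Ig (1 nM) and APC anti-His (20 nM).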
In the case of `Cc1c(COc2cc(OCc3ccc(-n4cccn4)nc3)c(CNC(C)(CO)CO)cc2Cl)cccc1-c1cccc(COc2cc(OCc3ccc(-n4cccn4)nc3)c(CNC(C)(CO)CO)cc2Cl)c1C` [Example 5020, 2,2′-((((((2,2′-dimethyl-[1,1′-biphenyl]-3,3′-diyl)bis(methylene))bis(oxy))bis(2-((6-(1H-pyrazol-1-yl)pyridin-3-yl)methoxy)-5-chloro-4,1-phenylene))bis(methylene))bis(azanediyl))bis(2-methylpropane-1,3-diol)], the IC50 lay in the range of 0.04 to 20 nM.
The result for `Cc1c(COc2cc(OCc3ccc(-n4cccn4)nc3)c(CN3CCCC[C@H]3C(=O)O)cc2Cl)cccc1-c1cccc(COc2cc(OCc3ccc(-n4cccn4)nc3)c(CN3CCCC[C@H]3C(=O)O)cc2Cl)c1C` [Example 5021, (2S,2′S)-1,1′-(((((2,2′-dimethyl-[1,1′-biphenyl]-3,3′-diyl)bis(methylene))bis(oxy))bis(2-((6-(1H-pyrazol-1-yl)pyridin-3-yl)methoxy)-5-chloro-4,1-phenylene))bis(methylene))bis(piperidine-2-carboxylic acid)] reads 0.04 to 20 nM; that for `Cc1c(COc2cc(OCc3ccc(-n4cccn4)nc3)c(CN[C@@](C)(CO)C(=O)O)cc2Cl)cccc1-c1cccc(COc2cc(OCc3ccc(-n4cccn4)nc3)c(CN[C@@](C)(CO)C(=O)O)cc2Cl)c1C` [Example 5022, (2S,2′S)-2,2′-((((((2,2′-dimethyl-[1,1′-biphenyl]-3,3′-diyl)bis(methylene))bis(oxy))bis(2-((6-(1H-pyrazol-1-yl)pyridin-3-yl)methoxy)-5-chloro-4,1-phenylene))bis(methylene))bis(azanediyl))bis(3-hydroxy-2-methylpropanoic acid)], 0.04 to 20 nM; that for `Cc1c(COc2cc(OCc3ccc(-n4cccn4)nc3)c(CN(C)C(C)(CO)CO)cc2Cl)cccc1-c1cccc(COc2cc(OCc3ccc(-n4cccn4)nc3)c(CN(C)C(C)(CO)CO)cc2Cl)c1C` [Example 5023, 2,2′-((((((2,2′-dimethyl-[1,1′-biphenyl]-3,3′-diyl)bis(methylene))bis(oxy))bis(2-((6-(1H-pyrazol-1-yl)pyridin-3-yl)methoxy)-5-chloro-4,1-phenylene))bis(methylene))bis(methylazanediyl))bis(2-methylpropane-1,3-diol)], 20.1 to 90 nM.
With `Cc1c(COc2cc(OCc3ccc(-n4cccn4)nc3)c(CN(C)C(C)(C)C(=O)O)cc2Cl)cccc1-c1cccc(COc2cc(OCc3ccc(-n4cccn4)nc3)c(CN(C)C(C)(C)C(=O)O)cc2Cl)c1C` [Example 5024, 2,2′-((((((2,2′-dimethyl-[1,1′-biphenyl]-3,3′-diyl)bis(methylene))bis(oxy))bis(2-((6-(1H-pyrazol-1-yl)pyridin-3-yl)methoxy)-5-chloro-4,1-phenylene))bis(methylene))bis(methylazanediyl))bis(2-methylpropanoic acid)], the IC50 was 0.04 to 20 nM.
Consider `Cc1c(COc2cc(OCc3ccc(-n4cccn4)nc3)c(CN(C)[C@@H](CCO)C(=O)O)cc2Cl)cccc1-c1cccc(COc2cc(OCc3ccc(-n4cccn4)nc3)c(CN(C)[C@@H](CCO)C(=O)O)cc2Cl)c1C` [Example 5025, (2S,2′S)-2,2′-((((((2,2′-dimethyl-[1,1′-biphenyl]-3,3′-diyl)bis(methylene))bis(oxy))bis(2-((6-(1H-pyrazol-1-yl)pyridin-3-yl)methoxy)-5-chloro-4,1-phenylene))bis(methylene))bis(methylazanediyl))bis(4-hydroxybutanoic acid)], for which the IC50 was in the range of 0.04 to 20 nM.
Next, `CCC[C@@H](C(=O)O)N(C)Cc1cc(Cl)c(OCc2cccc(-c3cccc(COc4cc(OCc5ccc(-n6cccn6)nc5)c(CN(C)[C@@H](CCC)C(=O)O)cc4Cl)c3C)c2C)cc1OCc1ccc(-n2cccn2)nc1` [Example 5026, (2S,2′S)-2,2′-((((((2,2′-dimethyl-[1,1′-biphenyl]-3,3′-diyl)bis(methylene))bis(oxy))bis(2-((6-(1H-pyrazol-1-yl)pyridin-3-yl)methoxy)-5-chloro-4,1-phenylene))bis(methylene))bis(methylazanediyl))dipentanoic acid]: 0.04 to 20 nM.
With `Cc1c(COc2cc(OCc3ccc(-n4cccn4)nc3)c(CN(C)[C@@](C)(CO)C(=O)O)cc2Cl)cccc1-c1cccc(COc2cc(OCc3ccc(-n4cccn4)nc3)c(CN(C)[C@@](C)(CO)C(=O)O)cc2Cl)c1C` [Example 5027, (2S,2′S)-2,2′-((((((2,2′-dimethyl-[1,1′-biphenyl]-3,3′-diyl)bis(methylene))bis(oxy))bis(2-((6-(1H-pyrazol-1-yl)pyridin-3-yl)methoxy)-5-chloro-4,1-phenylene))bis(methylene))bis(methylazanediyl))bis(3-hydroxy-2-methylpropanoic acid)], the IC50 is 0.04 to 20 nM.
Consider `Cc1c(COc2cc(OCc3ccc(-n4cccn4)nc3)c(CN(C)C(CO)CO)cc2Cl)cccc1-c1cccc(COc2cc(OCc3ccc(-n4cccn4)nc3)c(CN(C)C(CO)CO)cc2Cl)c1C` [Example 5028, 2,2′-((((((2,2′-dimethyl-[1,1′-biphenyl]-3,3′-diyl)bis(methylene))bis(oxy))bis(2-((6-(1H-pyrazol-1-yl)pyridin-3-yl)methoxy)-5-chloro-4,1-phenylene))bis(methylene))bis(methylazanediyl))bis(propane-1,3-diol)], for which the IC50 lay in the range of 90.1 to 1000 nM.
Next, `Cc1c(COc2cc(OCc3ccc(-n4cccn4)nc3)c(CN(C)[C@H](C(=O)O)[C@@H](C)O)cc2Cl)cccc1-c1cccc(COc2cc(OCc3ccc(-n4cccn4)nc3)c(CN(C)[C@H](C(=O)O)[C@@H](C)O)cc2Cl)c1C` [Example 5029, (2S,2′S,3R,3′R)-2,2′-((((((2,2′-dimethyl-[1,1′-biphenyl]-3,3′-diyl)bis(methylene))bis(oxy))bis(2-((6-(1H-pyrazol-1-yl)pyridin-3-yl)methoxy)-5-chloro-4,1-phenylene))bis(methylene))bis(methylazanediyl))bis(3-hydroxybutanoic acid)]: 20.1 to 90 nM; `COc1cc(OCc2cccc(-c3cccc(COc4cc(OCc5cncc(C#N)c5)c(CN(C)[C@@H](CCO)C(=O)O)cc4Cl)c3C)c2C)c(Cl)cc1CN(C)[C@@H](CCO)C(=O)O` [Example 5030, N-(4-((3′-((4-((((S)-1-carboxy-3-hydroxypropyl)(methyl)amino)methyl)-2-chloro-5-((5-cyanopyridin-3-yl)methoxy)phenoxy)methyl)-2,2′-dimethyl-[1,1′-biphenyl]-3-yl)methoxy)-5-chloro-2-methoxybenzyl)-N-methyl-L-homoserine]: 0.04 to 20 nM.
Next, `COc1cc(OCc2cccc(-c3cccc(COc4cc(OCc5cncc(C#N)c5)c(CN(C)CCC(=O)O)cc4Cl)c3C)c2C)c(Cl)cc1CN(C)CCC(=O)O` [Example 5031, 3-((4-((3′-((4-(((2-carboxyethyl)(methyl)amino)methyl)-2-chloro-5-((5-cyanopyridin-3-yl)methoxy)phenoxy)methyl)-2,2′-dimethyl-[1,1′-biphenyl]-3-yl)methoxy)-5-chloro-2-methoxybenzyl)(methyl)amino)propanoic acid]: 0.04 to 20 nM; `COc1cc(OCc2cccc(-c3cccc(COc4cc(OC)c(CNCc5cc[nH]n5)cc4Cl)c3C)c2C)c(Cl)cc1CNCc1cc[nH]n1` [Example 5032, 1,1′-((((2,2′-dimethyl-[1,1′-biphenyl]-3,3′-diyl)bis(methylene))bis(oxy))bis(5-chloro-2-methoxy-4,1-phenylene))bis(N-((1H-pyrazol-3-yl)methyl)methanamine)]: 0.04 to 20 nM; `COc1cc(OCc2cccc(-c3cccc(COc4cc(OC)c(CNCc5cncnc5)cc4Cl)c3C)c2C)c(Cl)cc1CNCc1cncnc1` [Example 5033, 1,1′-((((2,2′-dimethyl-[1,1′-biphenyl]-3,3′-diyl)bis(methylene))bis(oxy))bis(5-chloro-2-methoxy-4,1-phenylene))bis(N-(pyrimidin-5-ylmethyl)methanamine)]: 0.04 to 20 nM.
Next, `COc1cc(OCc2cccc(-c3cccc(COc4cc(OC)c(CNCc5cncs5)cc4Cl)c3C)c2C)c(Cl)cc1CNCc1cncs1` [Example 5034, 1,1′-((((2,2′-dimethyl-[1,1′-biphenyl]-3,3′-diyl)bis(methylene))bis(oxy))bis(5-chloro-2-methoxy-4,1-phenylene))bis(N-(thiazol-5-ylmethyl)methanamine)]: 20.1 to 90 nM.
As to `COc1cc(OCc2cccc(-c3cccc(COc4cc(OC)c(CNCCC(=O)O)cc4Cl)c3C)c2C)c(Cl)cc1CNCCC(=O)O` [Example 5035, 3,3′-((((((2,2′-dimethyl-[1,1′-biphenyl]-3,3′-diyl)bis(methylene))bis(oxy))bis(5-chloro-2-methoxy-4,1-phenylene))bis(methylene))bis(azanediyl))dipropionic acid], the IC50 is 0.04 to 20 nM.
Next, `COc1cc(OCc2cccc(-c3cccc(COc4cc(OC)c(CN[C@@H](CCO)C(=O)O)cc4Cl)c3C)c2C)c(Cl)cc1CN[C@@H](CCO)C(=O)O` [Example 5036, (2S,2′S)-2,2′-((((((2,2′-dimethyl-[1,1′-biphenyl]-3,3′-diyl)bis(methylene))bis(oxy))bis(5-chloro-2-methoxy-4,1-phenylene))bis(methylene))bis(azanediyl))bis(4-hydroxybutanoic acid)]: 0.04 to 20 nM; `COc1cc(OCc2cccc(-c3cccc(COc4cc(OC)c(CN(C)Cc5cc[nH]n5)cc4Cl)c3C)c2C)c(Cl)cc1CN(C)Cc1cc[nH]n1` [Example 5037, 1,1′-((((2,2′-dimethyl-[1,1′-biphenyl]-3,3′-diyl)bis(methylene))bis(oxy))bis(5-chloro-2-methoxy-4,1-phenylene))bis(N-((1H-pyrazol-3-yl)methyl)-N-methylmethanamine)]: 20.1 to 90 nM.
